Assay results as given in patent publication US20080194637A1, “Small organic molecule regulators of cell proliferation” (Curis, Inc., priority 2006, published 2008).
Where a name gives a salt, the structure may show the parent alone. Read-outs that look alike come from different tables or passages of the source.

Experiments:
Format in all cases: cell-based
[1] = system: sonic hedgehog pathway, TM3 mouse Leydig cells; experiment: Hedgehog pathway Gli-luciferase reporter assay in TM3 cells
Text: (§1) Mouse (TM3: mouse Leydig cells; S12: mouse embryonic mesenchymal cells) and human (Daoy: human medulloblastoma cell; HepM: human embryonic palatal mesenchymal cell) cell lines are used to screen small molecules for their ability to modulate the activity of the sonic hedgehog pathway (Table 1, Table 2, and Table 3). Stable hedgehog pathway reporter cell lines are established by specific antibiotic selection following transfection of a reporter plasmid containing a luciferase gene located directly downstream from the gli promoter. Consequently, any observable changes in cellular luciferase activity may be attributed to changes in sonic hedgehog pathway activity in mouse and human cells, respectively, since gli is the major by-product of this pathway. To calculate activity, we generate an eleven point dose curve for each compound using 1:3 dilutions in 96 well assay plates. Each plate tested also contains low and high control to establish maximal pathway activation so to establish/compare a percentage activation of each tested compound (AMAX) on respective plates. Also we calculate EC50 values, or a concentration where the pathway will be exactly 50% activated, for each tested compound to determine potency. In these cell lines, compounds that register >20% AMAX values are considered active.
(§2) Stable hedgehog pathway reporter cell lines are established following specific antibiotic selection following transfection of a reporter plasmid In short, typically cells are plated in MicroTiter-plates at 10,000-20,000 cells per well, in growth media (containing 10%-20% FBS). After 48-72 hrs (HGL and DGL respectively) the media in the assay plates is switched to low-serum containing media (0.5% FBS). At that time compounds are added (at 1-5 μM) to the assay plates, in the presence or absence of hedgehog protein (octyl-modified version; 1-5 ng/ml). After another 24 hrs of incubation, the media from the assay plates is discarded and replaced with luciferase assay-mix. Subsequently, plates are incubated at RT for ˜15-30 mins and then read in a luminometer. [note: addition of the Hedgehog protein, although not critical, will sensitize the assay allowing the identification of weak actives].

[2] = system: sonic hedgehog pathway, HepM human embryonic palatal mesenchymal cells; experiment: Human hedgehog reporter assay HEPM-GliLuc (HGL); conditions: gli-luciferase reporter
Text: as §1, §2

[3] = system: sonic hedgehog pathway, Daoy human medulloblastoma cells; experiment: Human hedgehog reporter assay Daoy-GliLuc (DGL); conditions: gli-luciferase reporter, read-out: Daoy Avg. EC50
Text: as §1, §2

[4] = HepM human embryonic palatal mesenchymal cells, Table 1
[5] = Daoy human medulloblastoma cells, Table 1

| Structure (SMILES) | EC50 ([1]; Table 1) | EC50 [3, 5] | EC50 ([1]; Table 3) | EC50 ([3]; Daoy human cells, Table 3) | EC50 [2, 4] | EC50 ([2]; HepM human cells, Table 3) |
| --- | --- | --- | --- | --- | --- | --- |
| CN[C@H]1CC[C@@H](N(Cc2cc(-c3ccc(S(C)(=O)=O)cc3)ccc2OC)C(=O)c2sc3ccccc3c2Cl)CC1 [Compound R7, 3-Chloro-benzo[b]thiophene-2-carboxylic acid (4′-methanesulfonyl-4-methoxy-biphenyl-3-ylmethyl)-(4-methylamino-cyclohexyl)-amide hydrochloride] | < 50 nM | – | – | – | < 50 nM | – |
| CCOc1ccc(-c2ccc(OC)cc2)cc1CN(C(=O)c1sc2ccccc2c1Cl)[C@H]1CC[C@@H](NC)CC1 [Compound 312, 3-Chloro-benzo[b]thiophene-2-carboxylic acid (4-ethoxy-4′-methoxy-biphenyl-3-ylmethyl)-(4-methylamino-cyclohexyl)-amide hydrochloride] | – | 50 to 250 nM | – | – | – | – |
| CCOc1ccc(-c2ccccc2)cc1CN(C(=O)c1sc2ccccc2c1Cl)[C@H]1CC[C@@H](NC)CC1 [Compound 313, 3-Chloro-benzo[b]thiophene-2-carboxylic acid (4-ethoxy-biphenyl-3-ylmethyl)-(4-methylamino-cyclohexyl)-amide hydrochloride] | 50 to 250 nM | < 50 nM | – | – | – | – |
| CCOc1ccc(-c2cncnc2)cc1CN(C(=O)c1sc2ccccc2c1Cl)[C@H]1CC[C@@H](NC)CC1 [Compound 326, 3-Chloro-benzo[b]thiophene-2-carboxylic acid (2-ethoxy-5-pyrimidin-5-yl-benzyl)-(4-methylamino-cyclohexyl)-amide dihydrochloride] | 50 to 250 nM | < 50 nM | – | – | 50 to 250 nM | – |
| CN[C@H]1CC[C@H](N(Cc2cc(-c3ccc(N)nc3C)ccc2OC)C(=O)c2sc3ccccc3c2Cl)CC1 [Compound 398, 3-Chloro-benzo[b]thiophene-2-carboxylic acid [5-(6-amino-2-methyl-pyridin-3-yl)-2-methoxy-benzyl]-(4-methylamino-cyclohexyl)-amide dihydrochloride] | – | – | 1000 to 2500 nM | 250 to 1000 nM | – | 1000 to 2500 nM |
| CCOc1ccc(-c2ccc(C(F)(F)F)cc2)cc1CN(C(=O)c1sc2ccccc2c1Cl)[C@H]1CC[C@@H](NC)CC1 [Compound 309, 3-Chloro-benzo[b]thiophene-2-carboxylic acid (4-ethoxy-4′-trifluoromethyl-biphenyl-3-ylmethyl)-(4-methylamino-cyclohexyl)-amide hydrochloride] | 50 to 250 nM | < 50 nM | – | – | – | – |
| CN[C@H]1CC[C@@H](N(Cc2cc(-c3cnc(N(C)C)nc3)ccc2OC)C(=O)c2sc3ccccc3c2Cl)CC1 [Compound 321, 3-Chloro-benzo[b]thiophene-2-carboxylic acid [5-(2-dimethylamino-pyrimidin-5-yl)-2-methoxy-benzyl]-(4-methylamino-cyclohexyl)-amide dihydrochloride] | 1000 to 2500 nM | 50 to 250 nM | – | – | – | – |
| CN[C@H]1CC[C@@H](N(Cc2cc(-c3ccc(OC(F)(F)F)cc3)ccc2OC)C(=O)c2sc3ccccc3c2Cl)CC1 [Compound 307, 3-Chloro-benzo[b]thiophene-2-carboxylic acid (4-methoxy-4′-trifluoromethoxy-biphenyl-3-ylmethyl)-(4-methylamino-cyclohexyl)-amide hydrochloride] | < 50 nM | < 50 nM | – | – | – | – |
| CN[C@H]1CC[C@@H](N(Cc2cc(-c3ccc(C#N)cc3)ccc2OC)C(=O)c2sc3cccc(F)c3c2Cl)CC1 [Compound 366, 3-Chloro-4-fluoro-benzo[b]thiophene-2-carboxylic acid (4′-cyano-4-methoxy-biphenyl-3-ylmethyl)-(4-methylamino-cyclohexyl)-amide hydrochloride] | < 50 nM | < 50 nM | – | – | – | – |
| CNC(=O)c1cc(-c2ccc(OC)c(CN(C(=O)c3sc4c(F)ccc(F)c4c3Cl)[C@H]3CC[C@H](NC)CC3)c2)ccn1 [356 (R21), 4-(3-{([(3-Chloro-4,7-difluoro-benzo[b]thiophene-2-carbonyl)-(4-methylamino-cyclohexyl)-amino]-methyl}-4-methoxy-phenyl)-pyridine-2-carboxylic acid methylamidedihydrochloride] | < 50 nM | < 50 nM | – | – | < 50 nM | – |
| CN[C@H]1CC[C@@H](N(Cc2cc(-c3cccc(C#N)c3)ccc2OC)C(=O)c2sc3ccccc3c2Cl)CC1 [Compound 304, 3-Chloro-benzo[b]thiophene-2-carboxylic acid (3′-cyano-4-methoxy-biphenyl-3-ylmethyl)-(4-methylamino-cyclohexyl)-amide hydrochloride] | < 50 nM | < 50 nM | – | – | < 50 nM | – |

Further lines, with some results ahead:

| EC50 ([1]; Table 1) | EC50 [3, 5] | EC50 ([1]; Table 3) | EC50 ([3]; Daoy human cells, Table 3) | Structure (SMILES) | EC50 [2, 4] | EC50 ([2]; HepM human cells, Table 3) |
| --- | --- | --- | --- | --- | --- | --- |
| < 50 nM | – | – | – | CN[C@H]1CC[C@@H](N(Cc2cc(-c3ccc(C)nc3)ccc2OC)C(=O)c2sc3ccccc3c2Cl)CC1 [Compound 320, 3-Chloro-benzo[b]thiophene-2-carboxylic acid [2-methoxy-5-(6-methyl-pyridin-3-yl)-benzyl]-(4-methylamino-cyclohexyl)-amide dihydrochloride] | < 50 nM | – |
| < 50 nM | – | – | – | CN[C@H]1CC[C@@H](N(Cc2cc(-c3cccc(C(C)=O)c3)ccc2OC)C(=O)c2sc3c(F)ccc(F)c3c2Cl)CC1 [Compound 364, 3-Chloro-4,7-difluoro-benzo[b]thiophene-2-carboxylic acid (3′-acetyl-4-methoxy-biphenyl-3-ylmethyl)-(4-methylamino-cyclohexyl)-amide hydrochloride] | < 50 nM | – |
| < 50 nM | < 50 nM | – | – | CN[C@H]1CC[C@@H](N(Cc2cc(-c3ccc(CCl)cc3)ccc2OC)C(=O)c2sc3ccccc3c2Cl)CC1 [Compound 340, 3-Chloro-benzo[b]thiophene-2-carboxylic acid (4′-chloromethyl-4-methoxy-biphenyl-3-ylmethyl)-(4-methylamino-cyclohexyl)-amide hydrochloride] | < 50 nM | – |
| 50 to 250 nM | – | – | – | CN[C@H]1CC[C@@H](N(Cc2cc(-c3ccnc(C(=O)O)c3)ccc2OC)C(=O)c2sc3c(F)ccc(F)c3c2Cl)CC1 [Compound R6, 4-(3-{[(3-Chloro-4,7-difluoro-benzo[b]thiophene-2-carbonyl)-(4-methylamino-cyclohexyl)-amino]-methyl}-4-methoxy-phenyl)-pyridine-2-carboxylic acid bis(trifluoroacetate)] | 50 to 250 nM | – |
| < 50 nM | – | – | – | CN[C@H]1CC[C@@H](N(Cc2cc(-c3ccc(C#N)cc3)ccc2OC)C(=O)c2sc3c(F)ccc(F)c3c2Cl)CC1 [Compound 351, 3-Chloro-4,7-difluoro-benzo[b]thiophene-2-carboxylic acid (4′-cyano-4-methoxy-biphenyl-3-ylmethyl)-(4-methylamino-cyclohexyl)-amide hydrochloride] | < 50 nM | – |
| < 50 nM | < 50 nM | – | – | CN[C@H]1CC[C@@H](N(Cc2cc(-c3cccc(C#N)c3)ccc2OC)C(=O)c2sc3cccc(F)c3c2Cl)CC1 [Compound 365, 3-Chloro-4-fluoro-benzo[b]thiophene-2-carboxylic acid (3′-cyano-4-methoxy-biphenyl-3-ylmethyl)-(4-methylamino-cyclohexyl)-amide hydrochloride] | – | – |
| < 50 nM | – | – | – | CN[C@H]1CC[C@@H](N(Cc2cc(-c3cccc(C#N)c3)ccc2OC)C(=O)c2sc3c(F)ccc(F)c3c2Cl)CC1 [Compound 337, 3-Chloro-4,7-difluoro-benzo[b]thiophene-2-carboxylic acid (3′-cyano-4-methoxy-biphenyl-3-ylmethyl)-(4-methylamino-cyclohexyl)-amide hydrochloride] | < 50 nM | – |
| – | – | < 50 nM | < 50 nM | CN[C@H]1CC[C@H](N(Cc2cc(-c3ccc(C(O)C(F)(F)F)cc3)ccc2F)C(=O)c2sc3ccccc3c2Cl)CC1 (stereo partly drawn) [Compound 433, 3-Chloro-benzo[b]thiophene-2-carboxylic acid [4-fluoro-4′-(2,2,2-trifluoro-1-hydroxy-ethyl)-biphenyl-3-ylmethyl]-(4-methylamino-cyclohexyl)-amide hydrochloride] | – | – |
